Experiments:
[1] = target: T1, GLP1R (Homo sapiens, UniProt P43220); experiment: GLP1R/CRE-Luc luciferase reporter gene assay (agonist activity); format: cell-based; design: host or cells: HKE293 (so in the source); settings: HKE293-Human GLP1R/CRE-luc cells, 5 h at 37° C., read-out: EC50 (nM) Assay 2
Target sequence in this assay (P43220 24-463): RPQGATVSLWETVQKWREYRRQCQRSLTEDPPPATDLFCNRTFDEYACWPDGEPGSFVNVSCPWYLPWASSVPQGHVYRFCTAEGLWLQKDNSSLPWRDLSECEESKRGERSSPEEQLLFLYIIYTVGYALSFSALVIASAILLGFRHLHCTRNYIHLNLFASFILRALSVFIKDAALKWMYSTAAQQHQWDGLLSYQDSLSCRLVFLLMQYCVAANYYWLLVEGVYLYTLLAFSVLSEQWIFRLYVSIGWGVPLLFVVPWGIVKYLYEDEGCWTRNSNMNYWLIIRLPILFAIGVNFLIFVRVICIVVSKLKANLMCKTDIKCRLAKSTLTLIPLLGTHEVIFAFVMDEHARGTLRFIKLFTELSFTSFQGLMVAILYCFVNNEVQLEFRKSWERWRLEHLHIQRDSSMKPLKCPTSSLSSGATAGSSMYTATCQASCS

[2] = target: T1, GLP1R; experiment: GLP1R cAMP assay (HTRF cAMP detection, agonist activity); format: cell-based; design: host or cells: Flp-In-293; settings: Flp-In-293-GLP1R cells, 30 min at 37° C., read-out: EC50 (nM) Assay 1
Target sequence in this assay (P43220 24-463, species assumed): as the sequence (P43220 24-463) above

| EC50 [1] | EC50 [2] | SMILES |
| --- | --- | --- |
| 19.3 nM | 0.009 nM | N#Cc1ccc(COc2cccc(C34CCN(Cc5nc6c(F)cc(C(=O)O)cc6n5C[C@@H]5CCO5)CC3C4)n2)c(F)c1 (single isomer, unassigned) [Compound 1-10-A] |
| > 1000 nM | 0.287 nM | N#Cc1ccc(COc2cccc(N3C4CCC3CN(Cc3nc5ccc(C(=O)O)cc5n3C[C@@H]3CCO3)C4)n2)c(F)c1 [Compound 2-29, 2-((−8-(6-((4-cyano-2-fluorobenzyl)oxy)pyridin-2-yl)-3,8-diazabicyclo[3.2.1]octan-3-yl)methyl)-1-(((S)-oxetan-2-yl)methyl)-1H-benzo[d]imidazole-6-carboxylic acid] |
| 84.9 nM | 0.035 nM | N#Cc1ccc(COc2cccc(C34CCN(Cc5nc6ccc(C(=O)O)cc6n5C[C@@H]5CCO5)CC3C4)n2)c(F)c1 (single isomer, unassigned) [Compound 1-1-B] |

From patent US20240382471A1, “GLUCAGON-LIKE PEPTIDE-1 RECEPTOR MODULATORS AND USES THEREOF” (HEPAGENE THERAPEUTICS (HK) LIMITED, priority 2021, published 2024)
